Measurements published in US9611262B2, “Substituted 2-azabicycles and their use as orexin receptor modulators” (JANSSEN PHARMACEUTICA NV, priority 2014, dated 2017).

Columns and labels:
rat orexin 1 receptor = rat orexin 1 receptor (Rattus norvegicus, UniProt P56718); test: Rat orexin 1 receptor radioligand binding (competitive); settings: HEK293 cells stably expressing rat orexin 1 receptor; 4 nM radioligand; averages of 2-20 runs; read-out: rOX1 Ki
Protocol: (§1) The in vitro affinity of the compounds of the invention for the rat/human orexin 1 and human orexin 2 receptors was determined by competitive radioligand binding using [^3H](1-(5-(2-fluoro-phenyl)-2-methyl-thiazol-4-yl)-1-((S)-2-(5-phenyl-(1,3,4)oxadiazol-2-ylmethyl)-pyrrolidin-1-yl)-methanone) (Langmead et al., 2004) and [^3H]EMPA (n-ethyl-2[96-methoxy-pyridin-3-yl)-(toluene-2-sulfonyl)-amino]-N-pyridin-3-ylmethyl acetamide), respectively (Langmead et al., 2004, British Journal of Pharmacology 141:340-346; Malherbe et al., 2004, British Journal of Pharmacology 156:1326-41).
(§2) Data are analyzed using pc-Sandy macro and graphed on Graphpad Prism 5. For analysis, each concentration point is averaged from triplicate values and the averaged values are plotted on Graphpad Prism. The IC50 was determined by applying the following equation (GraphPad Prism 5.0, San Diego) for one site competition where X=log (concentration) and Y=specific binding. Top denotes the total [^3H]— (1-(5-(2-fluoro-phenyl)-2-methyl-thiazol-4-yl)-1-((S)-2-(5-phenyl-(1,3,4)oxadiazol-2-ylmethyl)-pyrrolidin-1-yl)-methanone) binding, bottom denotes the nonspecific [^3H]— (1-(5-(2-fluoro-phenyl)-2-methyl-thiazol-4-yl)-1-((S)-2-(5-phenyl-(1,3,4)oxadiazol-2-ylmethyl)-pyrrolidin-1-yl)-methanone) binding. Graphpad Prism calculates Ki value from IC50 and the pre-determined Kd values for [^3H]— (1-(5-(2-fluoro-phenyl)-2-methyl-thiazol-4-yl)-1-((S)-2-(5-phenyl-(1,3,4)oxadiazol-2-ylmethyl)-pyrrolidin-1-yl)-methanone) and [^3H]-EMPA. The Ki for each compound is then uploaded into 3DX. Each run comprises individual compounds in triplicate. The data in Table 1 and Table 2 represent averages from between 2-20 runs
Rat and Human Orexin 1 Receptor Radioligand Binding Studies
Human Embryonic Kidney 293 cells (HEK293) stably expressing rat orexin 1 receptor (Genebank accession number NM_001525) or Chinese ovary cells (CHO) stably expressing human orexin 1 receptor (Genebank accession number […]) were grown to confluency in DMEM (Hyclone, cat # SH30022), 10% FBS, 1× Pen/Strep, 1× sodium pyruvate, 10 mM HEPES, 600 μg/mL G418 and DMEM/F12 (Gibco, Cat #11039), 10% FBS, 1× Pen/Strep, 600 μg/mL G418 media, respectively on 150 cm^2 tissue culture plates, washed with 5 mM EDTA in PBS (HyClone Dulbecco's Phosphate Buffered Saline 1× with Calcium and Magnesium, Cat # SH30264.01, hereafter referred to simply as PBS) and scraped into 50 ml tubes. After centrifugation (2K×G, 5 min at 4° C.), the supernatant was aspirated and the pellets frozen and stored at −80° C. Cells were resuspended in PBS in the presence of 1 tablet of protease inhibitor cocktail (Roche, Cat. #11836145001) per 50 mL. […] Competition binding experiments in 96 well polypropylene plates were performed using [^3H]— (1-(5-(2-fluoro-phenyl)-2-methyl-thiazol-4-yl)-1-((S)-2-(5-phenyl-(1,3,4)oxadiazol-2-ylmethyl)-pyrrolidin-1-yl)-methanone) (Moraveck Corporation, specific activity=35.3 Ci/mmol), diluted to a 10 nM concentration in PBS (4 nM final). Compounds were solubilized in 100% DMSO (Acros Organics, Cat. #61042-1000) and tested over a range of 7 concentrations (from 0.1 nM to 10 μM). The final concentration of DMSO in the reactions is equal to or less than 0.1%. Total and nonspecific binding was determined in the absence and presence of 10 μM almorexant. The total volume of each reaction is 200 μL (20 μL of diluted compounds, 80 μL of [^3H]— (1-(5-(2-fluoro-phenyl)-2-methyl-thiazol-4-yl)-1-((S)-2-(5-phenyl-(1,3,4)oxadiazol-2-ylmethyl)-pyrrolidin-1-yl)-methanone) diluted in PBS and 100 μL of the cell suspension). Reactions were run for 60 min at room temperature and terminated by filtration through GF/C filter plates (PerkinElmer, Cat. #6005174) presoaked in 0.3% polyethylenimine using the cell harvester (PerkinElmer Filtermate). The plates were washed 3 times by aspirating 30 ml PBS through the plates. Plates were dried in 55° C. oven for 60 min, scintillation fluid was added, and the radioactivity was counted on a Topcount (Packard). […]

human orexin 2 receptor = human orexin 2 receptor (Homo sapiens (Human), UniProt O43614); test: Human orexin 2 receptor radioligand binding ([3H]-EMPA competition); settings: HEK293 stably expressing human orexin 2 receptor; 2 nM [3H]-EMPA; averages of 2-20 runs; read-out: hOX2 Ki
Protocol: as §1, §2
Human Orexin 2 Receptor Radioligand Binding Studies
HEK293 stably expressing human orexin 2 receptor (Genebank accession number NM_001526) were grown to confluency in DMEM (Hyclone, cat # SH30022), 10% FBS, 1× Pen/Strep, 1× NaPyruvate, 10 mM HEPES, 600 μg/ml G418 media on 150 cm^2 tissue culture plates, washed with 5 mM EDTA in PBS (HyClone Dulbecco's Phosphate Buffered Saline 1× with Calcium and Magnesium, Cat # SH30264.01, hereafter referred to simply as PBS) and scraped into 50 ml tubes. After centrifugation (2K×G, 5 min at 4° C.), the supernatant was aspirated and the pellets frozen and stored at −80° C. Cells were resuspended in PBS in the presence of 1 tablet of protease inhibitor cocktail (Roche, Cat. #11836145001) per 50 mL. […] Compounds were solubilized in 100% DMSO (Acros Organics, Cat. #61042-1000) and tested over a range of 7 concentration (from 0.1 nM to 10 μM). The final concentration of DMSO in the reactions is equal to or less than 0.1%. Total and nonspecific binding was determined in the absence and presence of 10 μM almorexant. The total volume of each reaction is 200 μL (20 μL of diluted compounds, 80 μL of [^3H]-EMPA diluted in PBS and 100 μL of the cell suspension). Reactions were run for 60 min at room temperature and terminated by filtration through GF/C filter plates (PerkinElmer, Cat. #6005174) presoaked in 0.3% polyethylenimine using the cell harvester (PerkinElmer Filtermate). The plates were washed 3 times by aspirating 30 ml PBS through the plates. Plates were dried in 55° C. oven for 60 min, scintillation fluid was added, and the radioactivity was counted on a Topcount (Packard).

Chain of human orexin 2 receptor (O43614 whole entry): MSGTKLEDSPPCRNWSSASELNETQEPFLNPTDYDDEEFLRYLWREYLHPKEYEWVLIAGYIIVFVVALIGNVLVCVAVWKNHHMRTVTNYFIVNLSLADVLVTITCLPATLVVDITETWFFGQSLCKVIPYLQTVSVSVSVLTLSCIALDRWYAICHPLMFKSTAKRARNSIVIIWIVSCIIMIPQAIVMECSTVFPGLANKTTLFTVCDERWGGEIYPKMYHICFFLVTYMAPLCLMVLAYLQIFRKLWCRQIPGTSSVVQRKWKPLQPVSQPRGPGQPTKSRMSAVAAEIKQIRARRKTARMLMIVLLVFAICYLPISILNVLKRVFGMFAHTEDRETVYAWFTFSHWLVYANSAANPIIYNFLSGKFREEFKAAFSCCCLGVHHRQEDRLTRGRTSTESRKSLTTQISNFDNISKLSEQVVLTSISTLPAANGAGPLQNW

Row | Compound | Ki (rat orexin 1 receptor) [nM] | Ki (human orexin 2 receptor) [nM]
1 | CCOC(=O)[C@@H]1[C@H]2C[C@@H](Oc3ccc(C(F)(F)F)cn3)[C@H](C2)N1C(=O)c1nc(C)ccc1-n1nccn1 [Example 192, ethyl (1R,2S,4S,5R)-3-[6-methyl-3-(triazol-2-yl)pyridine-2-carbonyl]-5-[[5-(trifluoromethyl)-2-pyridyl]oxy]-3-azabicyclo[2.2.1]heptane-2-carboxylate] | 53 | 795
2 | C[C@@H]1[C@H]2C[C@@H](Oc3ccc(C(F)(F)F)cn3)[C@H](C2)N1C(=O)c1ccccc1-c1ncc(OCCF)cn1 [Example 169, [2-[5-(2-fluoroethoxy)pyrimidin-2-yl]phenyl]-[(1R,2R,4S,5R)-2-methyl-5-[[5-(trifluoromethyl)-2-pyridyl]oxy]-3-azabicyclo[2.2.1]heptan-3-yl]methanone] | 52 | 3940
3 | C[C@@H]1[C@H]2C[C@@H](Oc3ccc(C(F)(F)F)cn3)[C@H](C2)N1C(=O)c1ccc(OCCF)cc1-n1nccn1 [Example 202, [4-(2-fluoroethoxy)-2-(triazol-2-yl)phenyl]-[(1R,2R,4S,5R)-2-methyl-5-[[5-(trifluoromethyl)-2-pyridyl]oxy]-3-azabicyclo[2.2.1]heptan-3-yl]methanone] | 196 | > 10000
4 | COC[C@@H]1[C@@H]2CC[C@@H]([C@H](Oc3ccc(C(F)(F)F)cn3)C2)N1C(=O)c1nc(C)ccc1-n1nccn1 [Example 179, [(1R,2S,4S,5R)-2-(methoxymethyl)-5-[[5-(trifluoromethyl)-2-pyridyl]oxy]-3-azabicyclo[2.2.2]octan-3-yl]-[6-methyl-3-(triazol-2-yl)-2-pyridyl]methanone] | 15 | 2100
5 | C[C@@H]1[C@H]2C[C@@H](Oc3ccc(C(F)(F)F)nc3)[C@H](C2)N1C(=O)c1ncccc1-n1nccn1 (relative stereo) [Example 37, (3-(2H-1,2,3-triazol-2-yl)pyridin-2-yl)((1S*,3R*,4R*,6R*)-3-methyl-6-((6-(trifluoromethyl)pyridin-3-yl)oxy)-2-azabicyclo[2.2.1]heptan-2-yl)methanone] | 3720 | > 10000
6 | Cc1ccc(-n2nccn2)c(C(=O)N2C(C)C3CC(Nc4cnc(C(F)(F)F)cn4)C2C3)n1 (single isomer, unassigned) [Example 6A, (6-methyl-3-(2H-1,2,3-triazol-2-yl)pyridin-2-yl)((1R*,3R*,4R*,6S*)-3-methyl-6-((5-(trifluoromethyl)pyrazin-2-yl)amino)-2-azabicyclo[2.2.1]heptan-2-yl)methanone] |  | > 10000
7 | CCOc1ccc(C)nc1C(=O)N1[C@H](C)[C@H]2C[C@@H](Oc3cnc(C(F)(F)F)cn3)[C@@H]1C2 (relative stereo) [Example 56, (3-ethoxy-6-methylpyridin-2-yl)((1S*,3R*,4R*,6R*)-3-methyl-6-((5-(trifluoromethyl)pyrazin-2-yl)oxy)-2-azabicyclo[2.2.1]heptan-2-yl)methanone] |  | 7000
8 | C[C@@H]1[C@H]2C[C@@H](Oc3cnc4cc(F)c(F)cc4n3)[C@H](C2)N1C(=O)c1cccc(F)c1-n1nccn1 (relative stereo) [Example 190, ((1S*,3R*,4R*,6R*)-6-((6,7-difluoroquinoxalin-2-yl)oxy)-3-methyl-2-azabicyclo[2.2.1]heptan-2-yl)(3-fluoro-2-(2H-1,2,3-triazol-2-yl)phenyl)methanone] |  | 123
9 | CC1C2CC(Nc3cnc(C(F)(F)F)cn3)C(C2)N1C(=O)c1ccccc1-n1nccn1 (single isomer, unassigned) [Example 5A, (2-(2H-1,2,3-triazol-2-yl)phenyl)((1R*,3R*,4R*,6S*)-3-methyl-6-((5-(trifluoromethyl)pyrazin-2-yl)amino)-2-azabicyclo[2.2.1]heptan-2-yl)methanone] |  | > 10000
10 | CC1C2CC(Oc3ccc(C(F)(F)F)cn3)C(C2)N1C(=O)c1ccccc1-c1ncc(F)cn1 (single isomer, unassigned) [Example 19A, (2-(5-fluoropyrimidin-2-yl)phenyl)((1R*,3S*,4S*,6S*)-3-methyl-6-((5-(trifluoromethyl)pyridin-2-yl)oxy)-2-azabicyclo[2.2.1]heptan-2-yl)methanone] | 746 | 
11 | CC1C2CC(Oc3ccc(C(F)(F)F)cn3)C(C2)N1C(=O)c1cccc(F)c1-c1ncc(F)cn1 (single isomer, unassigned) [Example 20B, (3-fluoro-2-(5-fluoropyrimidin-2-yl)phenyl)((1S*,3R*,4R*,6R*)-3-methyl-6-((5-(trifluoromethyl)pyridin-2-yl)oxy)-2-azabicyclo[2.2.1]heptan-2-yl)methanone] |  | 1890
12 | C[C@@H]1[C@H]2C[C@@H](Oc3ccc(C(F)(F)F)cn3)[C@H](C2)N1C(=O)c1ccccc1-c1ncccn1 (relative stereo) [Example 33, ((1S*,3R*,4R*,6R*)-3-methyl-6-((5-(trifluoromethyl)pyridin-2-yl)oxy)-2-azabicyclo[2.2.1]heptan-2-yl)(2-(pyrimidin-2-yl)phenyl)methanone] |  | 602
13 | Cc1ccc(-n2nccn2)c(C(=O)N2C(C)C3CC(Nc4cnc(C(F)(F)F)cn4)C2C3)n1 (single isomer, unassigned) [Example 69, (R/S)-(6-methyl-3-(2H-1,2,3-triazol-2-yl)pyridin-2-yl)(3-methyl-6-((5-(trifluoromethyl)pyrazin-2-yl)amino)-2-azabicyclo[2.2.1]heptan-2-yl)methanone] |  | 345
14 | CC1C2CC(Nc3cnc(C(F)(F)F)cn3)C(C2)N1C(=O)c1ccccc1-n1nccn1 (racemic) [Example 68, (R/S)-(2-(2H-1,2,3-triazol-2-yl)phenyl)(3-methyl-6-((5-(trifluoromethyl)pyrazin-2-yl)amino)-2-azabicyclo[2.2.1]heptan-2-yl)methanone] |  | 625
